# Experimental data: patent US6780622B2, “Diterpene cyclase and methods of use” (Florida Atlantic University, priority 2002, dated 2004)
# Non-standard residues stand in square brackets, D forms with d. Residues, ends and D or L forms follow the SMILES beside them. *: point of attachment. Sta = CC(C)C[C@H](N)[C@@H](O)CC(=O)O; Isovaleryl = CC(C)CC(=O)*
# Experiment: Cyclization of 3H-GGPP by purified elisabethatriene cyclase-containing chromatography fractions
# Format: biochemical, Pseudopterogorgia elisabethae
# Conditions: judged by the formation of pseudopterosins
# Method: An example of a method for cyclizing GGPP to elisabethatriene includes the steps of providing purified elisabethatriene cyclase and contacting the GGPP substrate with the purified elisabethatriene cyclase under reaction conditions that result in the production of elisabethatriene. Any suitable reaction conditions that result in the production of elisabethatriene may be used. For example, ^3H-GGPP (1 μCi) is incubated with a suitable amount of purified elisabethatriene cyclase at 27° C. for 1-4 hours.
# To purify enzymatically active elisabethatriene cyclase, CFE samples were subjected to DEAE ion-exchange chromatography, phenyl sepharose chromatography, hydroxyapatite chromatography, and UNO™ [2-Propen-1-aminium, N,N,-dimethyl-N-2-propenyl-, chloride, polymer with 1,4-bis(1-oxo-2-propenyl)piperazine and 2-methyl-2-propenamide] ion exchange chromatography (Bio-Rad Laboratories, Hercules, Calif.). Active fractions were obtained in all cases. Fractions resulting from these purification techniques were concentrated by ultracentrifugation, and then 0.5-100 μg (brought up to a total volume of 500 μl) was assayed for enzymatic activity by incubation with 1 μCi [1]^3H-GGPP for 1 hour in 20 mM Tris buffer (pH 7.7, 3 mM EDTA, 5 mM β-mercaptoethanol, 5 mM MgCl2). Samples were quenched, extracted with 500 μl hexanes and partially purified by passing through a small silica gel pasteur pipette column. Elisabethatriene was then added as “cold carrier” and incubations were purified by high-performance liquid chromatography (HPLC). […] Radioactivity in HPLC fractions was quantified by scintillation counting.
# Using elisabethatriene cyclase purified by column chromatography as described in Example 1, GGPP was cyclized to elisabethatriene. To carry out the reaction, incubations were performed by incubating ^3H-GGPP(1 μCi) with purified elisabethatriene cyclase-containing fractions from chromatography columns at 27° C. for 1-4 hours.
smiles,measurement,value
CC(C)C[C@H](NC(=O)[C@@H](NC(=O)N[C@@H](Cc1ccccc1)C(=O)O)[C@@H]1CCN=C(N)N1)C(=O)N[C@H](C=O)Cc1ccccc1 [chymostatin],effect of adding protease inhibitors on enzymatic activity of the fractions,did not increase the enzymatic activity
CC(=O)N[C@@H](CC(C)C)C(=O)N[C@@H](CC(C)C)C(=O)N[C@H](C=O)CCCNC(=N)N [leupeptin],effect of adding protease inhibitors on enzymatic activity of the fractions,did not increase the enzymatic activity
CC(C)CC(=O)N[C@H](C(=O)N[C@H](C(=O)N[C@@H](CC(C)C)[C@@H](O)CC(=O)N[C@@H](C)C(=O)N[C@@H](CC(C)C)[C@@H](O)CC(=O)O)C(C)C)C(C)C [pepstatin] (Isovaleryl-VV[Sta]A[Sta]-OH),effect of adding protease inhibitors on enzymatic activity of the fractions,did not increase the enzymatic activity
